Data reported in patent publication US20240067645A1, “HETEROCYCLIC COMPOUND AS DIACYLGLYCEROL KINASE INHIBITOR AND USE THEREOF” (LG CHEM, LTD., priority 2020, published 2024).

Molecular target: DGKα (Homo sapiens (Human), UniProt P23743)
Assay: Measurement of inhibitory effect against DGKα enzyme (ADP-Glo)
Format: biochemical
Settings: DGKα enzyme, ADP-Glo luminescence, OAG/ATP substrate, 20 min room temperature; read-out: IC50
Protocol: Experimental Example: Measurement of Inhibitory Effect Against DGKα Enzyme
First, 3×OAG (3 mM)/ATP (0.45 mM) substrate solution was prepared from 1× substrate assay buffer (40 mM MOPS (pH 7.2), 20 mM MgCl2, 1 mM DTT, 0.4 mM CaCl2), 3 mM sodium deoxycholate, 100 mM NaCl, 0.1 mg/mL BSA, 0.12% NP-40), and vortexed thoroughly for 3 minutes to induce detergent-lipid micelle formation. Then, 3×DGKα (7.5 nM) enzyme solution was prepared from 2× enzyme assay buffer (80 mM MOPS (pH 7.2), 2 mM DTT, 200 mM NaCl, 0.2 mg/mL BSA) and vortexed for a short time.
After preparing the above two solutions, a half-area opaque 96-well assay plate was prepared, and 10 μL of 3× diluted compound solution (30 μM to 0 μM) was transferred to each well. Next, 10 μL of 3×DGK enzyme solution was transferred to the same plate, mixed by pipetting, and then 10 μL of 3×OAG/ATP substrate solution was added to the assay plate and mixed well. The plate was incubated at room temperature for 20 minutes for the enzyme reaction. Next, 15 μL of ADP-Glo reagent was added to each well and mixed by pipetting, followed by incubating the plate at room temperature for 40 minutes to deplete the remaining ATPs. After this step, 30 μL of kinase detection reagent was added and mixed, and the plate was incubated at room temperature for an additional 20 minutes and luminescence was measured by Envision to calculate the IC50 value of each compound.
The measurement results are represented in Table 1 (+: IC50>5 μM, ++: 5 μM>IC50>300 nM, +++: IC50<300 nM).

Sequence of DGKα (P23743 whole entry, species assumed): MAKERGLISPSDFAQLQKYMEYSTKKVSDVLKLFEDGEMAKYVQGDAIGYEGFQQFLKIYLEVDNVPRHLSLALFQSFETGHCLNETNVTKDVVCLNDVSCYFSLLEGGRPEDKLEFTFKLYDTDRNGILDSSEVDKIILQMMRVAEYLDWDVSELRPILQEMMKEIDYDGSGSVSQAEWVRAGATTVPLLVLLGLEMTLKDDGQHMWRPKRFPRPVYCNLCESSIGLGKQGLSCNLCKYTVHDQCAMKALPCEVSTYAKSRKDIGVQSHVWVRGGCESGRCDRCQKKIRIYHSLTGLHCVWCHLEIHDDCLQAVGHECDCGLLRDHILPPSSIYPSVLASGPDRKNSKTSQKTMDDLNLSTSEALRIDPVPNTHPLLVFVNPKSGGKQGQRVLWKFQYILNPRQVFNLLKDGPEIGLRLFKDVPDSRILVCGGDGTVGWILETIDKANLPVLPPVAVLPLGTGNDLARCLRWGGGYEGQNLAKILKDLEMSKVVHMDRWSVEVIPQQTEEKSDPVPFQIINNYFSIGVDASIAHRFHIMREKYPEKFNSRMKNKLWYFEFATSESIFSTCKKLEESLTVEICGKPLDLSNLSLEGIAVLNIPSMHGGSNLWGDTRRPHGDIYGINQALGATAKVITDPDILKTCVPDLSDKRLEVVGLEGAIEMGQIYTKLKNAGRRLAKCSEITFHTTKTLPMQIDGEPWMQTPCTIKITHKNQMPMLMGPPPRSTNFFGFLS

IC50 [nM]	Compound
300 to 5000	CNC(=O)c1cnc2c(c1)n(C)c(=O)c(=O)n2C1CCN(Cc2ccc(OC(F)(F)F)cc2)CC1 [Example 65, N,1-dimethyl-2,3-dioxo-4-(1-(4-(trifluoromethoxy)benzyl)piperidin-4-yl)-1,2,3,4-tetrahydropyrido[2,3-b]pyrazine-7-carboxamide]
< 300	Cn1c(=O)c(=O)n(C2CCN(Cc3ccc(OC(F)(F)F)cc3)CC2)c2ncc(C(N)=O)cc21 [Example 66, 1-methyl-2,3-dioxo-4-(1-(4-(trifluoromethoxy)benzyl)piperidin-4-yl)-1,2,3,4-tetrahydropyrido[2,3-b]pyrazine-7-carboxamide]
< 300	Cc1cnc2c(c1)n(C)c(=O)c(=O)n2C1CCN(Cc2cccc(Cl)c2)CC1 [Example 67, 4-(1-(3-chlorobenzyl)piperidin-4-yl)-1,7-dimethyl-1,4-dihydropyrido[2,3-b]pyrazine-2,3-dione]
